Consider six molecules from patent US4241182A, “Fortimicin factors KG1, KG2 and KG3 and processes for production thereof” (Kyowa Hakko Kogyo Co., Ltd., priority 1978, dated 1980).

≈ marks a conversion by molar mass, not a printed value. Read-outs that look alike come from different tables or passages of the source.

For orientation: LD50 means the dose at which mortality reaches 50%.

The test system of data set [1] is Proteus vulgaris ATCC 6897. As to the kind of experiment: Antibacterial spectrum, agar dilution method. Format: cell-based. An excerpt:
(§1) Table 3 illustrates the antibacterial spectra of Fortimicin factors KG1, KG2 and KG3 against various microorganisms.
(§2) (Minimum Inhibitory Concentration, μg/ml measured by
(§3) agar dilution method at pH 8.0)
In general terms: Agar dilution tests growth on a series of plates holding different concentrations.

The test system of data set [2] is Staphylococcus aureus ATCC 6538P. The data set is described as follows: Antibacterial spectrum, agar dilution method. Format: cell-based. The note with it: for MIC: Staphylococcus aureus, ATCC6538P, pH 8, Staphylococcus aureus ATCC 6538P, read-out: Minimum Inhibitory Concentration.
Text: as §1, §2, §3

The test system of data set [3] is Escherichia coli KY8302. As to the kind of experiment: Antibacterial spectrum, agar dilution method. The class given is cell-based. The note with it: for MIC: Escherichia coli, KY8302, pH 8, Escherichia coli KY8302 (resistant to chloramphenicol, streptomycin, kanamycin, paromomycin, tetracycline and spectinomycin), read-out: Minimum Inhibitory Concentration.
Text: as §1, §2, §3

For data set [4], the system named is Escherichia coli KY8327. The data set is described as follows: Antibacterial spectrum, agar dilution method. Format: cell-based. The settings on record: for MIC: Escherichia coli, KY8327, pH 8, Escherichia coli KY8327 (resistant to kanamycin, gentamicin and tobramycin), read-out: Minimum Inhibitory Concentration.
Text: as §1, §2, §3

Data set [5] relates to Pseudomonas aeruginosa BMH#1. The data set is described as follows: Antibacterial spectrum, agar dilution method. The class given is cell-based.
Text: as §1, §2, §3

Data set [6] concerns Escherichia coli ATCC 26. As to the kind of experiment: Antibacterial spectrum, agar dilution method. Format: cell-based.
Text: as §1, §2, §3

Data set [7] deals with Escherichia coli KY8348. The data set is described as follows: Antibacterial spectrum, agar dilution method. The class given is cell-based. The settings on record: for Minimum Inhibitory Concentration: Escherichia coli KY8348 (resistant to streptomycin and gentamicin), pH 8.0.
Text: as §1, §2, §3

Data set [8] relates to Bacillus subtilis No. 10707. The data set is described as follows: Activity of isolated substance (units per mg), paper disc method. Format: cell-based. On the procedure:
After the completion of fermentation, the culture liquor is adjusted to pH 2.5 with concentrated sulfuric acid and is stirred for 30 minutes. Thereafter, about 7 kg of a filter aid, Radiolite No. 600 (product of Showa Kagaku Kogyo Co., Ltd., Japan) is added to the culture liquor and the microbial cells are removed by filtration. The filtrate is adjusted to pH 7.5 by the addition of 6 N sodium hydroxide, and then flowed through a column packed with about 20 l of a cation exchange resin, Amberlite IRC-50 (ammonium form). The active principles are adsorbed on the resin, and the effluent is discarded. After the resin is washed with water, elution of the active principles is carried out with 1 N aqueous ammonia. The eluate is subjected to determination of activity by a paper disc method using an agar plate of Bacillus subtilis No. 10707. Fractions showing an activity are combined and concentrated under reduced pressure to about 1 l. The concentrate is adjusted to pH 7 with concentrated hydrochloric acid and then flowed through a column packed with 3 l of Amberlite CG-50 (ammonium form). After the resin is washed with water, elution is carried out with 0.1 N NH4 OH containing 0.1 M NH4 Cl. The eluate is taken in 500 ml fractions. Each fraction is subjected to determination of antibacterial activity against Bacillus subtilis No. 10707 and identification of active component by silica gel thin layer chromatography [Developer: the lower layer of a mixed solvent of chloroform, methanol and concentrated aqueous ammonia (2:1:1 by volume), Coloring agent: ninhydrin]. After the volume of the eluate reaches about 3 l, Fortimicin factors KG1, KG2 and KG3 begin to be eluted. The fractions containing Fortimicin factors KG1, KG2 and KG3 are collected, concentrated under reduced pressure to remove ammonia, neutralized with concentrated hydrochloric acid and flowed through a column packed with 500 ml of Amberlite IRC-50 (ammonium form). After the resin is washed with water, elution is carried out with 0.5 N aqueous ammonia. The active fractions are collected, concentrated under reduced pressure and freeze-dried to obtain 2 g of a white powder. The powder contains in it 250 mg of Fortimicin KG1, 640 mg of Fortimicin KG2 and 330 mg of Fortimicin KG3.
2 g of the crude powder is placed on a silica gel column (Silica gel: produced by Wako Junyaku Co., Ltd., Japan, Diameter of column: about 3 cm). Development is carried out with the lower layer of a mixed solvent of chloroform, methanol and concentrated aqueous ammonia (3:1:1 by volume). The eluate is taken in 20 ml fractions. Each fraction is subjected to the silica gel thin layer chromatography. First, Fortimicin B is eluted and then Fortimicin factors KG2, KG1 and KG3 are eluted in this order. The fractions respectively containing Fortimicin factors KG1, KG2 and KG3 are collected, concentrated under reduced pressure and freeze-dried to obtain 200 mg of Fortimicin KG1, [Activity: 970 u/mg (u: unit)], 500 mg of Fortimicin KG2 (Activity: 970 u/mg) and 250 mg of Fortimicin KG3 (Activity: 950 u/mg) (Activity of each of the purified substances is considered to be 1000 u/mg).

Data set [9] can be described thus: Solubility of the free base. The class given is physicochemical. The settings on record: for solubility in ethanol and acetone / solubility in methanol / solubility in organic solvents such as chloroform, benzene, ethyl acetate, butyl acetate, ethyl ether, butanol, petroleum ether, n-hexane / solubility in water: free base.
The test system of data set [10] is Gram-positive and Gram-negative bacteria. As to the kind of experiment: Antibacterial spectrum (summary of Table 3). Format: cell-based.
Text: as §1, §2, §3

Data set [11] has as its system Klebsiella pneumoniae ATCC 10031. As to the kind of experiment: Antibacterial spectrum, agar dilution method. Format: cell-based. The note with it: ATCC10031, pH 8.0, read-out: Minimum Inhibitory Concentration.
Text: as §1, §2, §3

Data set [12] concerns Bacillus subtilis No. 10707. As to the kind of experiment: Antibacterial spectrum, agar dilution method. The class given is cell-based. The note with it: pH 8.0, read-out: Minimum Inhibitory Concentration.
Text: as §1, §2, §3

In data set [13] the test system is Shigella sonnei ATCC 9290. The data set is described as follows: Antibacterial spectrum, agar dilution method. Format: cell-based. The note with it: ATCC9290, pH 8.0, read-out: Minimum Inhibitory Concentration.
Text: as §1, §2, §3

Data set [14] deals with Salmonella typhosa ATCC 9992. The data set is described as follows: Antibacterial spectrum, agar dilution method. The class given is cell-based. The note with it: Salmonella enterica, pH 8, read-out: Minimum Inhibitory Concentration.
Text: as §1, §2, §3

The subject of data set [15] is certain strains of Escherichia coli which are resistant to various antibiotics. As to the kind of experiment: Antibacterial activity against resistant strains (summary of Table 3). The class given is cell-based.
Text: as §1, §2, §3

The nature of data set [16]: Acute toxicity, intravenous administration in mice. The settings on record: mouse, in vivo.
Setting [17] is: Pseudomonas aeruginosa BMH#1, pH 8.0, read-out: Minimum Inhibitory Concentration.
Where [18] appears, read: after silica gel chromatography, pure substance considered 1000 u/mg.
[19] abbreviates: ATCC6897, Proteus vulgaris ATCC 6897, pH 8.0, read-out: Minimum Inhibitory Concentration.

`CNC1C(O)C(OC2OC(C(C)N)=CCC2N)C(N)C(O)C1OC` (stereo not drawn) [Fortimicin KG1]: the MIC is 26.1 µg/mL (≈ 75.3 µM) in [1] (Proteus vulgaris, ATCC6897, pH 8, read-out: Minimum Inhibitory Concentration, Proteus vulgaris ATCC 6897); 13.1 µg/mL (≈ 37.8 µM) in data set [2]; 26.1 µg/mL (≈ 75.3 µM) in data set [3]; 26.1 µg/mL (≈ 75.3 µM) in [4]; > 208 µg/mL in data set [5] (setting [17]); 26.1 µg/mL (≈ 75.3 µM) in data set [6] (Escherichia coli, ATCC26, pH 8, read-out: Minimum Inhibitory Concentration, Escherichia coli ATCC 26). In addition, the “Minimum Inhibitory Concentration” value in data set [7] came to 26.1 µg/mL. Moreover, in data set [8] (setting [18]), the Activity is listed as 970 u/mg. For the same molecule, in data set [9], the “solubility in ethanol and acetone” value is given as “slightly soluble”. For the same molecule, the solubility in methanol result in data set [9] was “soluble”. For the same molecule, the “solubility in organic solvents such as chloroform, benzene, ethyl acetate, butyl acetate, ethyl ether, butanol, petroleum ether, n-hexane” value (“solubility in organic solvents such” below) in data set [9] is given as “insoluble”. In [9], the solubility in water entry is on record as “readily soluble”. Also, the “solubility in the ordinary organic solvents” value in data set [9] was “poorly soluble”. For the same molecule, the “antibacterial activity / spectrum (in words)” value in data set [10] is listed as “broad antibacterial spectrum”.

As for `CNC1C(O)C(OC2OC(C(C)N)=CCC2N)C(N)C(O)C1OC` (stereo not drawn) [Fortimicin KG2], the MIC is 83.3 µg/mL (≈ 240 µM) in data set [1] (setting [19]) and > 167 µg/mL in data set [5] (Pseudomonas aeruginosa, pH 8, read-out: Minimum Inhibitory Concentration, Pseudomonas aeruginosa BMH#1). Moreover, the “Minimum Inhibitory Concentration” value in data set [2] (Staphylococcus aureus ATCC 6538P, pH 8.0) was found to be 10.5 µg/mL; in data set [3] (Escherichia coli KY8302 (resistant to chloramphenicol, streptomycin, kanamycin, paromomycin, tetracycline and spectinomycin), pH 8.0), 41.7 µg/mL; in data set [4] (Escherichia coli KY8327 (resistant to kanamycin, gentamicin and tobramycin), pH 8.0) it was 20.9 µg/mL; in data set [6] (Escherichia coli ATCC 26, pH 8.0) it was 41.7 µg/mL; in [7], 166.6 µg/mL. Further, in [8] (setting [18]), the Activity came to 970 u/mg. Besides, the “solubility in ethanol and acetone” value in [9] is given as “slightly soluble”. In addition, the solubility in methanol result in data set [9] is recorded as “soluble”. Besides, the “solubility in organic solvents such” value in data set [9] was “insoluble”. Besides, in data set [9], the solubility in water result is on record as “readily soluble”. Further, the “solubility in the ordinary organic solvents” value in data set [9] is on record as “poorly soluble”. In addition, the “antibacterial activity / spectrum (in words)” value in data set [10] was “broad antibacterial spectrum”.

`COC1C(O)C(N)C(OC2OC(C(C)N)=CCC2N)C(O)C1N(C)C(=O)CN` (stereo not drawn) [Fortimicin KG3]: the MIC in data set [11] was 0.18 µg/mL (≈ 0.446 µM); in [1] (setting [19]) it was 0.66 µg/mL (≈ 1.64 µM); in data set [2], 0.083 µg/mL (≈ 0.206 µM); in [3] it was 0.52 µg/mL (≈ 1.29 µM); in data set [12], < 0.045 µg/mL; in data set [13] it was 0.7 µg/mL (≈ 1.73 µM). In addition, the MIC in [4] came out at 0.33 µg/mL (≈ 0.818 µM); in data set [14] it was 0.18 µg/mL (≈ 0.446 µM); in data set [5] (setting [17]), 5.2 µg/mL (≈ 12.9 µM); in [6] (ATCC26, Escherichia coli ATCC 26, pH 8.0, read-out: Minimum Inhibitory Concentration) it was 0.33 µg/mL (≈ 0.818 µM); in [7] (Escherichia coli, KY8348, pH 8, Escherichia coli KY8348 (resistant to streptomycin and gentamicin), read-out: Minimum Inhibitory Concentration) it was 10.4 µg/mL (≈ 25.8 µM). Besides, in data set [15], the “effectiveness against resistant Escherichia coli (in words)” value is on record as “effective against certain strains of Escherichia coli which are resistant to various antibiotics”. In [8] (setting [18]), this molecule gave an Activity of 950 u/mg. Further, in data set [9], the “solubility in ethanol and acetone” value is on record as “slightly soluble”. For the same molecule, in data set [9], the solubility in methanol entry is reported as “soluble”. The “solubility in organic solvents such” value in data set [9] is on record as “insoluble”. Besides, the solubility in water result in [9] was “readily soluble”. Also, the “solubility in the ordinary organic solvents” value in data set [9] is reported as “poorly soluble”. The “antibacterial activity / spectrum (in words)” value in [10] was “strong antibacterial activity against a broad range of Gram-positive and Gram-negative bacteria”. Moreover, the LD50 in data set [16] was determined as 225 mg/kg.

For the molecule `CNC1C(O)C(OC2OC(C(C)N)=CCC2N)C(N)C(O)C1OC` (stereo not drawn) [sulfate of Fortimicin KG1], the Activity in data set [8] (sulfate, u: unit) was determined as 620 u/mg.

`CNC1C(O)C(OC2OC(C(C)N)=CCC2N)C(N)C(O)C1OC` (stereo not drawn) [sulfate of Fortimicin KG2]: in [8] (sulfate, u: unit), the Activity came to 620 u/mg.

In data set [8] (sulfate, u: unit), `COC1C(O)C(N)C(OC2OC(C(C)N)=CCC2N)C(O)C1N(C)C(=O)CN` (stereo not drawn) [sulfate of Fortimicin KG3] came in with an Activity of 650 u/mg.
